# Reference: patent publication US4816487A, “1-(2-hydroxyaryl)-alkane-1-on-oximes-procedure of preparation and use in pharmaceuticals” (Humboldt-Universitaet zu Berlin, priority 1985, dated 1989)
# Tests used:
# [1] = system: lung strip isolated from guinea pig; experiment: arachidonic acid-induced contraction of lung strip isolated from guinea pig; conditions: Cavia porcellus; 10 μM compound; 0.1 μM to 100 μM arachidonic acid; read-out: reduction in contractile response to arachidonic acid
# Text: Action of 5-methyl-2-hydroxy-laurophenone-oxime on arachidonic acid-inducedcontraction of lung strip isolated from guinea pig:
# The experimental arrangement for this test system was analogous to that described in Example 15, through lung strip isolated from guinea pig was the subject of testing. Contraction, in this test, was induced by rising concentrations of arachidonic acid (concentrated solution in ethanol, kept in N2 atmosphere) and cumulatively measured.
# [2] = system: sensitised guinea pig; experiment: allergen (ovalbumin)-induced bronchoconstriction in vivo of sensitised guinea pig (allergic asthma of guinea pig); conditions: for tolerance of additional/successive ovalbumin injections: pretreated animals, two additional (three successive) injections of 40 μg ovalbumin
# Text: These pharmacological properties were largely verified by measuring methods which were, basically, known from the literature. They were, however, applied in a modified form. […] 63, 1 (1979); M. W. Schneider and J. M. Drazen, Amer. Rev. Resp. Dis. 121, 835 (1980); S. S. Yen and W. Kreutner, Agents Actions 10, 174 (1980); S. S. Yen, Prostaglandins 22, 183 (1981); Adcock, J. J.; Garland, L. G.; Brit. J. Pharmacol. 69, 167 (1980); W. Diamantis, J. L. Melton; D. Sofia et al., Europ. J. Pharmacol. 56, 407 (1979); P. Anderson, Brit. J. Pharmacol. 77, 301 (1982)].
# It was, remarkably, observed that all control animals died of apnoea after one single intraperitoneal application of ovalbumin (40 μg/kg body weight), following protracted and extremely severe asthmatic reaction (anaphylactic shock?).
# Action on allergen-induced bronchoconstriction in vivo of sensitised guinea pig ("allergic asthma of guinea pig"):
# This test was applied to male guinea pigs, 30 to 35 days from sensitisation, using 330 mg of aluminium hydroxide and 33 μg of ovalbuminper one kilogram of body weight (fresh preparation in physiological sodium chloride solution).
# (Method was modified according to P. Anderson, Brit. J. Pharmacol. 77, 301 (1982).) The animals were anaesthetised by intraperitoneal application of 1.3 g/kg body weight of urethane, while 2 mg/kg body weight of Pavulon® were intravenously injected for muscular relaxation. Intravenous injection of 40 μg of ovalbumin triggered off the allergen-induced bronchoconstriction which developed to the full scale of anaphylactic shock in all control animals, within few seconds. The animals, tracheostomised and with venous catheters, were artificially ventilated at rhythmic negative pressure in a tank respirator (f=16 min^-1; inspiration:expiration=1:1). Gas flow(V), breathing volume (VT), and ECG were checked in the course of pneumotachography. The animals had been pretreated by two intraperitoneal injections of finely crushed 5-methyl-2-hydroxylaurophenone-oxime, suspended in agar-agar. […]
# [3] = solubility in water; format: physicochemical; conditions: visible from unambiguous clouding of the sample
# [4] = molecular target: T1, lipoxygenase-1 from soybean (Glycine max, UniProt P08170); experiment: inhibition of soybean lipoxygenase-1; format: biochemical; conditions: ultimate concentration 1.0 mM; read-out: Inhibition (percent) of lipoxygenase from soybean
# T1 construct: purchased
# T1 sequence (P08170 1-839): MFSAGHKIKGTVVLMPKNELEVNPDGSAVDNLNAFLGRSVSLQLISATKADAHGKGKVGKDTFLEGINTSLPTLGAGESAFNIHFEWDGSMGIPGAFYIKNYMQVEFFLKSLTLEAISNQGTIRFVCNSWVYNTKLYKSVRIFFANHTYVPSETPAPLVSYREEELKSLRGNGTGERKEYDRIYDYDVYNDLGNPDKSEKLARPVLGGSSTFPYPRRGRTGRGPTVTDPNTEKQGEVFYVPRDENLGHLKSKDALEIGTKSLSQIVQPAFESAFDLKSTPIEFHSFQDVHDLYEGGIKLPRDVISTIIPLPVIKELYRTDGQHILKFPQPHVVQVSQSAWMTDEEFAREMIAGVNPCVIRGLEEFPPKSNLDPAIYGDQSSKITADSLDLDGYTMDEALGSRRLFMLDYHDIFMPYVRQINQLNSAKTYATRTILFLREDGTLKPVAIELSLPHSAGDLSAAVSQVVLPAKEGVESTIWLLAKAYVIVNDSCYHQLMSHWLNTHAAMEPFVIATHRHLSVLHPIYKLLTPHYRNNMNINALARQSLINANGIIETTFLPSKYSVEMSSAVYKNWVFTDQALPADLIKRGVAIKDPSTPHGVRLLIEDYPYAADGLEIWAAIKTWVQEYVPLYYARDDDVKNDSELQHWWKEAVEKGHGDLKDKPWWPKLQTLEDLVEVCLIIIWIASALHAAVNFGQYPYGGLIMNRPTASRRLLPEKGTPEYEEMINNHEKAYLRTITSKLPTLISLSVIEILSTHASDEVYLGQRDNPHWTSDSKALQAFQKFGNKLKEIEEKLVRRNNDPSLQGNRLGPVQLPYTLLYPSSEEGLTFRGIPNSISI
# Procedure: Persuasive evidence to inhibition of lipoxygenase was produced by a suitable animal lipoxygenase which had been isolated from rabbit reticulocytes, using a method by Rapoport and coworkers /S. M. Rapoport et al., Eur. J. Biochem. 96, 545 (1979)/. A final concentration of 1 mM of most of the compounds, according to this invention, produced inhibition of 90 percent or more (cf. Example 20). Significant inhibition was even recordable from a final concentration of 0.1 mM of some of the compounds, according to this invention. Substance concentrations were varied to determine the titration curves of inhibition and from these the half-inhibition concentrations (I50 -values). A half-inhibition concentration of 7 μM was established for 5-methyl-2-hydroxy-laurophenone-oxime, an oxime of high anti-asthmatic effectiveness.
# Lipoxygenase from rabbit reticulocytes was obtained in electrophoretically and immunologically pure form by means of the method described in the literature /S. M. Rapoport et al., Eur. J. Biochem. 96, 545 (1979)/. Lipoxygenase activity was determined at 25° C. by amperometric measurement of oxygen consumption by means of a Clark electrode in the following system: 0.1M potassium phosphate, pH 7.4, with 0.2-per-cent sodium cholate and 0.53 mM linoleic acid. The enzyme concentration was […] in the sample for measurement. The substances submitted for testing were dissolved in methyl glycol (fresh distillation in vacuum) and pre-incubated ten minutes with the enzyme at measurement temperature and in the absence of sodium cholate and linoleic acid. […] No remarkable inhibition occurred to control samples under these conditions. Enzyme reaction was started by addition of sodium cholate and linoleic acid. The titration curve of inhibition and, consequently, the concentrations required for inhibition by the order of 50 per cent were determined by variation of active substance concentrations. For comparison, the compounds were tested also on commercial lipoxygenase-1 from soybean.
smiles,measurement,setting,value
CCCCCCCCCCCC(=NO)c1cc(C)ccc1O [5-methyl-2-hydroxy-laurophenone-oxime],inhibition at 10 µM,[1],70%
same,inhibition of ovalbumin-induced asthma reaction,"[2]; 2 x 10 mg/kg i.p., 90 and 60 minutes prior, 40 μg ovalbumin i.v., all probands",Complete inhibition
same,tolerance of additional/successive ovalbumin injections,[2],tolerated without reaction
same,tolerance of additional/successive ovalbumin injections,[2]; listed as 5-methyl-2-hydroxyl-laurophenone-oxime,tolerated without any sign of bronchoconstriction
same,solubility in water,[3],limited solubility in water
same,inhibition at 1000 µM,[4],67%
